This experiment relates to Autoxidation von Linolensäure. The experiment is described as follows: Antioxidant test: inhibition of hydroperoxide formation in radical-chain autoxidation of linoleic acid (after Stocker et al.), AIBN as radical starter, UV/Vis at 234 nm or HPLC. The format is biochemical. As to conditions: for IC50: Autoxidation of Linolensäure in the presence of air, b23 room temperature (37°C, 0,15 M Linolsäure, 2 mM AIBN, 6 % (v/v) Methanol), read-out: Konzentration c0,5 (Rate der Peroxidbildung auf die Hälfte reduziert). An excerpt:
Stocker et al. verwendeten zur Quantifizierung der antioxidativen Wirkung des Hämabbauproduktes Bilirubin ein einfaches Testsystem. Die essentielle Fettsäure Linolsäure, eine zweifach ungesättigte Fettsäure, ist sehr empfindlich gegenüber einer Oxidation durch freie Radikale. Derartige Oxidationen können in Form von Kettenreaktionen z.B. in Zellmembranen großflächige Schäden herbeiführen. In vitro wurde dieser "oxidative Stress" durch den Einsatz einer Azoverbindung (Radikalstarter) simuliert. Derartige Azoverbindungen bilden ständig, abhängig von der Temperatur durch Abspaltung von Stickstoff (N2) Kohlenstoffradikale, die wiederum mit den ungesättigten Bindungen der Fettsäuren reagieren können. Es bilden sich Fettsäureradikale die ihrerseits wiederum mit Sauerstoff reagieren. Das führt zur Bildung von Fettsäurehydroperoxiden, die wegen ihrer besonderen Absorptionseigenschaften in UV-Bereich (234 nm) spektroskopisch nachweisbar sind. Abhängig von der Konzentration des Radikalbildners steigt also mit der Zeit die Anzahl der Fettsäurehydroperoxidmoleküle an. Setzt man einen antioxidativ wirksamen Stoff zu, können Radikale abgefangen werden, und die Bildung der Hydroperoxide wird verlangsamt.
Das Ergebnis dieser Untersuchungen zeigt die Figur 8, in der die zeitliche Abhängigkeit der Zunahme oxidierter Linolsäure bei unterschiedlichen Konzentrationen der Antioxidantien Bilirubin bzw. NCC-1 aufgetragen ist.
Die Aktivität des natürlichen und weniger polaren Cj-YCC-2 als Antioxidans wurde in Lösung mittels Standardexperimenten, die unter anderem auch in der WO 2007/030848 beschrieben sind, getestet unter Verwendung der Autoxidation von Linolensäure in der Anwesenheit von Luft und bei Raumtemperatur. Das gelbe Tetrapyrrol Cj-YCC-2 inhibierte die Erscheinung von Hydroperoxiden aus einer Radikal-Ketten-Autoxidation von Linolensäure in der Anwesenheit von Luft (siehe Fig. 8). […]

Data on three compounds can be found in EP2321300B1, “CHLOROPHYLL CATABOLITES” (Universität Innsbruck, priority 2008, dated 2010).

For `C=CC1=C(C)/C(=C\c2[nH]c([C@@H]3c4[nH]c(Cc5[nH]c(C=O)c(C)c5CCO)c(C)c4C(=O)[C@H]3C(=O)OC)c(CCC(=O)O)c2C)NC1=O` [Cj-YCC-1, (13^2S,15R,20E) - 3',3^2-Didehydro - 4,5,10,15 - (22,24H) - hexahydro - 13^2 - methoxycarbonyl - 4,5 - seco - 4,5 - dioxo - phytoporphyrinat], the IC50 is roughly 10 µM.
In the case of `C=CC1=C(C)/C(=C/c2[nH]c([C@@H]3c4[nH]c(Cc5[nH]c(C=O)c(C)c5CCO)c(C)c4C(=O)[C@H]3C(=O)OC)c(CCC(=O)O)c2C)NC1=O` [Cj-YCC-2, (13^2S,15R,20Z) - 3^1,3^2-Didehydro - 4,5,10,15 - (22,24H) - hexahydro - 13^2 - methoxycarbonyl - 4,5 - seco - 4,5 - dioxo - phytoporphyrinat], the “Erscheinung von Hydroperoxiden aus einer Radikal-Ketten-Autoxidation von Linolensäure” value (in the presence of air, Fig. 8) is reported as “inhibierte”.
As to `C=CC1=C(C)C(Cc2[nH]c(C3c4[nH]c(Cc5[nH]c(C=O)c(C)c5CCO)c(C)c4C(=O)C3C(=O)OC)c(CCC(=O)O)c2C)NC1=O` (stereo not drawn) [Cj-NCC-1, reference compound], the IC50 is roughly 100 µM.
